The values that follow come from ChEMBL document CHEMBL1201862, “PubChem BioAssay data set” (2004).

Some test systems named below: PC-3; MDA-N; 786-0; IGROV-1; Hs-578T; HCT-15; MDA-MB-231; EKVX; KM12; SF-539; HCT-116; ACHN; NCI/ADR-RES; UO-31; MCF7; U-251; CAKI-1; M14; Malme-3M; TK-10.
Holding throughout (test): inhibition of tumour cell growth, NCI panel, 48 h

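96-well plates; 48 h exposure; 5 concentrations. Endpoints by linear interpolation between flanking doses. Not reached: highest tested concentration assigned. Abbreviation: GI50, concentration required for 50% inhibition of growth.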 Active and inactive are the calls of the source. Rule as the data show it: active = GI50 up to about 1.1 µM and inactive = higher. Where a SMILES comes first, the peptide text is derived from it. Where only a bound is given, the exact number is not on record here.

Take `Cc1cc2nc(C=C(C(F)(F)F)C(F)(F)F)oc2cc1C`: the GI50 in the test with PC-3 was 2.47 µM (inactive); with MDA-N it was > 10 µM (inactive); in the test on 786-0 it was 1.96 µM (inactive); in the test on IGROV-1, 2.91 µM (inactive); in the test on Hs-578T it was 3.37 µM (inactive); in the test on HCT-15, 3.37 µM. The GI50 was 2.88 µM (inactive) in the test on MDA-MB-231; 3.15 µM (inactive) in the test with EKVX; > 10 µM (inactive) in the test on KM12; 2.88 µM (inactive) in the test on SF-539; 1.38 µM (inactive) with HCT-116; 5.06 µM (inactive) with ACHN. In addition, the GI50 in the test on NCI/ADR-RES was 2.51 µM (inactive); with UO-31, 4.11 µM (inactive); in the test with MCF7, 0.472 µM (active); in the test with U-251, 3.33 µM (inactive); in the test with CAKI-1, 2.42 µM (inactive); in the test on M14, 2.51 µM (inactive). The GI50 with Malme-3M is 1.97 µM (inactive); with TK-10, 2.45 µM (inactive).

For `Cc1nc2nn[nH]n2c(=O)c1CCO`, the GI50 in the test with PC-3 was > 100 µM (inactive); in the test with MDA-N, > 100 µM (inactive); with 786-0, > 100 µM (inactive); with IGROV-1 it was > 100 µM (inactive); with Hs-578T, > 100 µM (inactive); in the test on HCT-15, greater than 100 µM. Also, the GI50 in the test with MDA-MB-231, with EKVX, with KM12, with SF-539, in the test with HCT-116 and in the test with ACHN was > 100 µM (inactive) in each case. Moreover, the GI50 in the test on NCI/ADR-RES, in the test on UO-31, with MCF7, in the test on U-251, with CAKI-1 and in the test on M14 was > 100 µM (inactive) in each case. Also, the GI50 in the test with Malme-3M and with TK-10 was > 100 µM (inactive) in each case.

On to `CSC(=Nc1nnc(-c2ccc([N+](=O)[O-])cc2)s1)SC`, for which the GI50 with PC-3 was > 41.9 µM (inactive); with MDA-N it was > 72.9 µM (inactive); in the test on 786-0, 20.7 µM (inactive); with IGROV-1 it was 27.9 µM (inactive); with Hs-578T it was 28.3 µM (inactive); in the test on HCT-15, greater than 95.5 µM. The GI50 in the test on MDA-MB-231 was > 58.5 µM (inactive); with EKVX, 54.5 µM (inactive); with KM12, > 94.8 µM (inactive); with SF-539, 18.1 µM (inactive); in the test on HCT-116, 27.4 µM (inactive); with ACHN, 42.9 µM (inactive). In addition, the GI50 is 33.5 µM (inactive) in the test on NCI/ADR-RES; 27.9 µM (inactive) in the test on UO-31; 36.6 µM (inactive) in the test with MCF7; 21.4 µM (inactive) in the test on U-251; 16.7 µM (inactive) in the test on CAKI-1; > 90.6 µM (inactive) in the test with M14. The GI50 is > 74.1 µM (inactive) in the test on Malme-3M and 16.6 µM (inactive) with TK-10.

As for `CC(CNC(N)=O)NC(N)=O` (stereo not given), the GI50 in the test on PC-3 was > 100 µM (inactive); in the test on MDA-N, > 100 µM (inactive); in the test with 786-0, > 100 µM (inactive); with IGROV-1, > 100 µM (inactive); with Hs-578T, > 100 µM (inactive); with HCT-15, greater than 100 µM. Besides, the GI50 with MDA-MB-231, in the test with EKVX, in the test with KM12, in the test with SF-539, with HCT-116 and in the test on ACHN was > 100 µM (inactive) each time. Moreover, the GI50 in the test with NCI/ADR-RES, in the test with UO-31, in the test with MCF7, in the test with U-251, in the test on CAKI-1 and with M14 was > 100 µM (inactive) throughout. Also, the GI50 in the test with Malme-3M and with TK-10 was > 100 µM (inactive) in each case.

As to `COc1cc(C2C=C(c3ccccc3)Oc3cc4c(cc32)OCO4)cc(OC)c1OC` (stereo not given), the GI50 is 0.354 µM (active) with PC-3; 0.249 µM (active) in the test on MDA-N; 0.386 µM (active) in the test with 786-0; 0.403 µM (active) in the test with IGROV-1; 0.348 µM (active) in the test on Hs-578T; 0.324 µM in the test with HCT-15. Moreover, the GI50 is 0.458 µM (active) in the test with MDA-MB-231; 0.565 µM (active) with EKVX; 0.38 µM (active) in the test with KM12; 0.265 µM (active) in the test with SF-539; 0.311 µM (active) in the test on HCT-116; 1.53 µM (inactive) in the test with ACHN. Moreover, the GI50 with NCI/ADR-RES is 0.312 µM (active); in the test on UO-31, 1.19 µM (inactive); in the test on MCF7, 0.409 µM (active); in the test on U-251, 0.449 µM (active); in the test on CAKI-1 it was 0.507 µM (active); in the test on M14 it was 0.35 µM (active). In addition, the GI50 in the test on Malme-3M is 0.527 µM (active); in the test on TK-10, > 36.2 µM (inactive).

With `O=c1[nH]c(=O)n(C2CC(O)C(CO)O2)cc1I` (stereo not given), the GI50 in the test on PC-3 is > 100 µM (inactive); in the test on MDA-N, > 100 µM (inactive); with 786-0, > 100 µM (inactive); in the test with IGROV-1, > 100 µM (inactive); in the test with Hs-578T it was > 100 µM (inactive); with HCT-15, greater than 100 µM. Moreover, the GI50 with MDA-MB-231, in the test with EKVX, in the test with KM12, with SF-539, in the test with HCT-116 and in the test with ACHN was > 100 µM (inactive) throughout. The GI50 was > 100 µM (inactive) with NCI/ADR-RES; > 100 µM (inactive) in the test on UO-31; 18.5 µM (inactive) in the test with MCF7; > 100 µM (inactive) in the test on U-251; 63.8 µM (inactive) with CAKI-1; > 70.3 µM (inactive) with M14. In addition, the GI50 in the test with Malme-3M and in the test on TK-10 was > 100 µM (inactive) throughout.

`CC(C)CC(NC(=O)C(Cc1ccccc1)NC(=O)C(Cc1c[nH]c2ccccc12)NC(=O)CNC(=O)C(N)Cc1ccc(O)cc1)C(=O)O` (stereo not given) (H-YGWFL-OH; configuration not given here): the GI50 in the test with PC-3 was 44.7 µM (inactive); in the test on MDA-N, 35.4 µM (inactive); with 786-0, 23.6 µM (inactive); in the test with IGROV-1, 58.7 µM (inactive); in the test on Hs-578T it was 42 µM (inactive); in the test with HCT-15 it was 69 µM. In addition, the GI50 in the test with MDA-MB-231 is 52.1 µM (inactive); in the test with EKVX it was 35.2 µM (inactive); in the test with KM12, 24.6 µM (inactive); with SF-539, 33.8 µM (inactive); in the test on HCT-116, 27.4 µM (inactive); with ACHN, 44.5 µM (inactive). The GI50 was 67.6 µM (inactive) in the test on NCI/ADR-RES; 81.3 µM (inactive) in the test with UO-31; 37.4 µM (inactive) with MCF7; 34.6 µM (inactive) with U-251; 34.9 µM (inactive) in the test with CAKI-1; 47.6 µM (inactive) with M14. Also, the GI50 in the test with Malme-3M is 21.2 µM (inactive); in the test on TK-10 it was 78.7 µM (inactive).
